33 molecules from US20100035871A1, “BENZOXAZINE DERIVATIVES AND USES THEREOF” (priority 2006, published 2010) can be followed below.

Where a name gives a salt, the structure may show the parent alone.

In general, melting point refers to the temperature, or range, at which the solid turns liquid. As to `CN1CC(CN)Oc2c(-c3cccc(Cl)c3)cccc21` (racemic) (as salt: hydrochloride) [Example 66, 1-[8-(3-chlorophenyl)-4-methyl-3,4-dihydro-2H-1,4-benzoxazin-2-yl]methanamine], the melting point is 134 °C (dec.).

`NCC1COc2cc(Cl)cc(-c3ccccc3Cl)c2N1` (racemic) (as salt: hydrochloride) [Example 36, 1-[7-chloro-5-(2-chlorophenyl)-3,4-dihydro-2H-1,4-benzoxazin-3-yl]methanamine]: the melting point was 108 °C (dec.).

In the case of `NCC1CNc2cccc(-c3ccccc3Cl)c2O1` (racemic) (as salt: hydrochloride) [Example 16, 1-[8-(2-Chlorophenyl)-3,4-dihydro-2H-1,4-benzoxazin-2-yl]methanamine], the melting point is 140 °C (dec.).

As to `COc1ccccc1-c1cccc2c1OC(CN)CN2C` (racemic) (as salt: hydrochloride) [Example 1, 1-[8-(2-Methoxyphenyl)-4-methyl-3,4-dihydro-2H-1,4-benzoxazin-2-yl]methanamine], the melting point was 90 °C (dec.).

Consider `Cc1ccc(-c2cc(F)cc3c2NC(CN)CO3)c(C(F)(F)F)c1` (racemic) (as salt: hydrochloride) [Example 60, 1-{7-fluoro-5-[4-methyl-2-(trifluoromethyl)phenyl]-3,4-dihydro-2H-1,4-benzoxazin-3-yl}methanamine], for which the melting point was 86 °C (dec.).

Take `Cc1cc(Cl)ccc1-c1cccc2c1O[C@@H](CN)CN2` (as salt: hydrochloride) [Example 48, 1-[(2S)-8-(4-chloro-2-methylphenyl)-3,4-dihydro-2H-1,4-benzoxazin-2-yl]methanamine]: the melting point was 196 °C (dec.).

With `NC[C@H]1CNc2cccc(-c3ccccc3F)c2O1` (as salt: hydrochloride) [Example 49, 1-[(2S)-8-(2-fluorophenyl)-3,4-dihydro-2H-1,4-benzoxazin-2-yl]methanamine], the melting point is 190 °C (dec.).

For `NC[C@H]1CNc2cccc(-c3ccccc3Cl)c2O1` (as salt: hydrochloride) [Example 39, 1-[(2S)-8-(2-chlorophenyl)-3,4-dihydro-2H-1,4-benzoxazin-2-yl]methanamine], the melting point was 145 °C (dec.).

For `NCC1COc2cc(F)cc(-c3ccccc3F)c2N1` (racemic) (as salt: hydrochloride) [Example 62, 1-[7-fluoro-5-(2-fluorophenyl)-3,4-dihydro-2H-1,4-benzoxazin-3-yl]methanamine], the melting point was 77 °C (dec.).

For `COc1ccc(-c2cccc3c2O[C@@H](CN)CN3)c(Cl)c1` (as salt: hydrochloride) [Example 52, 1-[(2S)-8-(2-chloro-4-methoxyphenyl)-3,4-dihydro-2H-1,4-benzoxazin-2-yl]methanamine], the melting point was 215 °C (dec.).

For the molecule `COc1ccc(-c2cccc3c2O[C@H](CN)CN3)c(Cl)c1` (as salt: hydrochloride) [Example 46, 1-[(2R)-8-(2-chloro-4-methoxyphenyl)-3,4-dihydro-2H-1,4-benzoxazin-2-yl]methanamine], the melting point is 211 °C (dec.).

As to `Cc1ccc(-c2cc(Cl)cc3c2NC(CN)CO3)c(C(F)(F)F)c1` (racemic) (as salt: hydrochloride) [Example 31, 1-{7-chloro-5-[4-methyl-2-(trifluoromethyl)phenyl]-3,4-dihydro-2H-1,4-benzoxazin-3-yl}methanamine], the melting point is 98 °C (dec.).

Regarding `NC[C@@H]1CNc2cccc(-c3cc(Cl)ccc3Cl)c2O1` (as salt: hydrochloride) [Example 53, 1-[(2R)-8-(2,5-dichlorophenyl)-3,4-dihydro-2H-1,4-benzoxazin-2-yl]methanamine], the melting point was 130 °C (dec.).

For the molecule `COc1ccc(-c2cccc3c2OC(CN)CN3C)c(C)c1` (racemic) (as salt: hydrochloride) [Example 5, 1-[8-(4-Methoxy-2-methylphenyl)-4-methyl-3,4-dihydro-2H-1,4-benzoxazin-2-yl]methanamine], the melting point was 85 °C (dec.).

For the molecule `COc1ccc(-c2cc(F)cc3c2NC(CN)CO3)c(C)c1` (racemic) (as salt: hydrochloride) [Example 56, 1-[7-fluoro-5-(4-methoxy-2-methylphenyl)-3,4-dihydro-2H-1,4-benzoxazin-3-yl]methanamine], the melting point was 82 °C (dec.).

Turning to `NCC1COc2cc(Cl)cc(-c3ccccc3C(F)(F)F)c2N1` (racemic) (as salt: hydrochloride) [Example 25, 1-{7-Chloro-5-[2-(trifluoromethyl)phenyl]-3,4-dihydro-2H-1,4-benzoxazin-3-yl}methanamine], the melting point is 102 °C (dec.).

With `NC[C@H]1CNc2cccc(-c3ccccc3C(F)(F)F)c2O1` (as salt: hydrochloride) [Example 47, 1-{(2S)-8-[2-(trifluoromethyl)phenyl]-3,4-dihydro-2H-1,4-benzoxazin-2-yl}methanamine], the melting point was 179 °C (dec.).

Regarding `NCC1COc2cc(Cl)cc(-c3ccccc3)c2N1` (racemic) (as salt: hydrochloride) [Example 29, 1-(7-chloro-5-phenyl-3,4-dihydro-2H-1,4-benzoxazin-3-yl)methanamine], the melting point was 92 °C (dec.).

`CCCN1CC(CN)Oc2c(-c3ccccc3Cl)cccc21` (racemic) (as salt: hydrochloride) [Example 21, 1-[8-(2-Chlorophenyl)-4-propyl-3,4-dihydro-2H-1,4-benzoxazin-2-yl]methanamine] gave a melting point of 83 to 85 °C.

`NCC1CNc2cccc(-c3ccc(C(F)(F)F)cc3C(F)(F)F)c2O1` (racemic) (as salt: hydrochloride) [Example 23, 1-{8-[2,4-Bis(trifluoromethyl)phenyl]-3,4-dihydro-2H-1,4-benzoxazin-2-yl}methanamine] displayed a melting point of 192 to 194 °C.

`Cc1cc(Cl)ccc1-c1cc(Cl)cc2c1NC(CN)CO2` (racemic) (as salt: hydrochloride) [Example 35, 1-[7-chloro-5-(4-chloro-2-methylphenyl)-3,4-dihydro-2H-1,4-benzoxazin-3-yl]methanamine]: the melting point was 102 °C (dec.).

In the case of `NCC1COc2cc(F)cc(-c3ccccc3Cl)c2N1` (racemic) (as salt: hydrochloride) [Example 57, 1-[5-(2-chlorophenyl)-7-fluoro-3,4-dihydro-2H-1,4-benzoxazin-3-yl]methanamine], the melting point is 86 °C (dec.).

With `NCC1CNc2cccc(-c3ccc(Cl)cc3C(F)(F)F)c2O1` (racemic) (as salt: hydrochloride) [Example 18, 1-{8-[4-Chloro-2-(trifluoromethyl)phenyl]-3,4-dihydro-2H-1,4-benzoxazin-2-yl}methanamine], the melting point is 205 to 207 °C.

`CN1CC(CN)Oc2c(-c3ccccc3C(F)(F)F)cccc21` (racemic) (as salt: hydrochloride) [Example 4, 1-{4-Methyl-8-[2-(trifluoromethyl)phenyl]-3,4-dihydro-2H-1,4-benzoxazin-2-yl}methanamine]: the melting point was 90 °C (dec.).

For `Cc1cc(Cl)ccc1-c1cccc2c1O[C@H](CN)CN2` (as salt: hydrochloride) [Example 42, 1-[(2R)-8-(4-chloro-2-methylphenyl)-3,4-dihydro-2H-1,4-benzoxazin-2-yl]methanamine], the melting point was 195 °C (dec.).

For the molecule `NC[C@@H]1CNc2cccc(-c3ccccc3F)c2O1` (as salt: hydrochloride) [Example 43, 1-[(2R)-8-(2-fluorophenyl)-3,4-dihydro-2H-1,4-benzoxazin-2-yl]methanamine], the melting point was 186 °C (dec.).

`CN1CC(CN)Oc2c(-c3ccc(Cl)cc3Cl)cccc21` (racemic) (as salt: hydrochloride) [Example 3, 1-[8-(2,4-Dichlorophenyl)-4-methyl-3,4-dihydro-2H-1,4-benzoxazin-2-yl]methanamine]: the melting point is 90 °C (dec.).

As for `NC[C@@H]1CNc2cccc(-c3ccc(Cl)cc3Cl)c2O1` (as salt: hydrochloride) [Example 54, 1-[(2R)-8-(2,4-dichlorophenyl)-3,4-dihydro-2H-1,4-benzoxazin-2-yl]methanamine], the melting point was 163 °C (dec.).

Consider `Cc1ccccc1-c1cccc2c1OC(CN)CN2C` (racemic) (as salt: hydrochloride) [Example 8, 1-[4-Methyl-8-(2-methylphenyl)-3,4-dihydro-2H-1,4-benzoxazin-2-yl]methanamine], for which the melting point is 92 °C (dec.).

With `COc1ccc(-c2cc(F)cc3c2NC(CN)CO3)cc1` (racemic) (as salt: hydrochloride) [Example 61, 1-[7-fluoro-5-(4-methoxyphenyl)-3,4-dihydro-2H-1,4-benzoxazin-3-yl]methanamine], the melting point was 72 °C (dec.).

As for `COc1ccccc1-c1cc(Cl)cc2c1NC(CN)CO2` (racemic) (as salt: hydrochloride) [Example 34, 1-[7-chloro-5-(2-methoxyphenyl)-3,4-dihydro-2H-1,4-benzoxazin-3-yl]methanamine], the melting point was 100 °C (dec.).

Regarding `NC[C@@H]1CNc2cccc(-c3ccc(Cl)cc3C(F)(F)F)c2O1` (as salt: hydrochloride) [Example 67, 1-{(2R)-8-[4-chloro-2-(trifluoromethyl)phenyl]-3,4-dihydro-2H-1,4-benzoxazin-2-yl}methanamine], the melting point is 203 °C (dec.).

On to `COc1ccc(-c2cccc3c2O[C@H](CN)CN3)c(C)c1` (as salt: hydrochloride) [Example 44, 1-[(2R)-8-(4-methoxy-2-methylphenyl)-3,4-dihydro-2H-1,4-benzoxazin-2-yl]methanamine], for which the melting point was 221 °C (dec.).
